Earlier results, collected in patent US10058559B2, “Treatment or prevention of an intestinal disease or disorder” (The United States of America, as represented by the …, priority 2014, dated 2018).

Experiments:
PLK4 = target: T1, PLK4 (Homo sapiens, UniProt O00444); settings: 185-kinase panel; cited from earlier work
T1 sequence (O00444 1-970): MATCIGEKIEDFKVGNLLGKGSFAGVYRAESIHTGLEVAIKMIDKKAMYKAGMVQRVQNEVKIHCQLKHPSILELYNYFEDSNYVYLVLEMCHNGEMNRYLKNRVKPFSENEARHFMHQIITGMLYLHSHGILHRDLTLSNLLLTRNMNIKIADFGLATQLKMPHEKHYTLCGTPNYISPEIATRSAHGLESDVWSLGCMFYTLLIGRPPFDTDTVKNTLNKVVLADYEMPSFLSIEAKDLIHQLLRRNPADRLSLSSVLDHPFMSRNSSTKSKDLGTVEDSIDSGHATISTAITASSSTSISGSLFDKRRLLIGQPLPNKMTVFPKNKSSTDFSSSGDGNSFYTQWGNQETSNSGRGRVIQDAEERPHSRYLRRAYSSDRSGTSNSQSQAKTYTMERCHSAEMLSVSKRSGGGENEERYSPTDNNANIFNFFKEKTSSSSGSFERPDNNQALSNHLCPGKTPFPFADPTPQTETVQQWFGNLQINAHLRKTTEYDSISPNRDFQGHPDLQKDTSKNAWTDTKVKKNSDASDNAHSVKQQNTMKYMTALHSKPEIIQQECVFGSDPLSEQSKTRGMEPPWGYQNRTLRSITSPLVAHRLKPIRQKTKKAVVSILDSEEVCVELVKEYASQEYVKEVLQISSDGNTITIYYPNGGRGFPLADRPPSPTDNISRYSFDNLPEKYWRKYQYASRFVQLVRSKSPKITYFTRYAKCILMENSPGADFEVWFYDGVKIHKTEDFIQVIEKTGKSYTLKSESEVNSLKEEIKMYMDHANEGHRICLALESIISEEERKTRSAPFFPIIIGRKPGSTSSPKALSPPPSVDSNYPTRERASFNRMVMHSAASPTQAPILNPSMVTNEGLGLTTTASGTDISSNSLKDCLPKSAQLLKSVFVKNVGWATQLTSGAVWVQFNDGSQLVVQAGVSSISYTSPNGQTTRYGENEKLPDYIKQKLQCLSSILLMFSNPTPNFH

GAK = target: T2, GAK (Homo sapiens, UniProt O14976); settings: 185-kinase panel; cited from earlier work
T2 sequence (O14976 1-1311): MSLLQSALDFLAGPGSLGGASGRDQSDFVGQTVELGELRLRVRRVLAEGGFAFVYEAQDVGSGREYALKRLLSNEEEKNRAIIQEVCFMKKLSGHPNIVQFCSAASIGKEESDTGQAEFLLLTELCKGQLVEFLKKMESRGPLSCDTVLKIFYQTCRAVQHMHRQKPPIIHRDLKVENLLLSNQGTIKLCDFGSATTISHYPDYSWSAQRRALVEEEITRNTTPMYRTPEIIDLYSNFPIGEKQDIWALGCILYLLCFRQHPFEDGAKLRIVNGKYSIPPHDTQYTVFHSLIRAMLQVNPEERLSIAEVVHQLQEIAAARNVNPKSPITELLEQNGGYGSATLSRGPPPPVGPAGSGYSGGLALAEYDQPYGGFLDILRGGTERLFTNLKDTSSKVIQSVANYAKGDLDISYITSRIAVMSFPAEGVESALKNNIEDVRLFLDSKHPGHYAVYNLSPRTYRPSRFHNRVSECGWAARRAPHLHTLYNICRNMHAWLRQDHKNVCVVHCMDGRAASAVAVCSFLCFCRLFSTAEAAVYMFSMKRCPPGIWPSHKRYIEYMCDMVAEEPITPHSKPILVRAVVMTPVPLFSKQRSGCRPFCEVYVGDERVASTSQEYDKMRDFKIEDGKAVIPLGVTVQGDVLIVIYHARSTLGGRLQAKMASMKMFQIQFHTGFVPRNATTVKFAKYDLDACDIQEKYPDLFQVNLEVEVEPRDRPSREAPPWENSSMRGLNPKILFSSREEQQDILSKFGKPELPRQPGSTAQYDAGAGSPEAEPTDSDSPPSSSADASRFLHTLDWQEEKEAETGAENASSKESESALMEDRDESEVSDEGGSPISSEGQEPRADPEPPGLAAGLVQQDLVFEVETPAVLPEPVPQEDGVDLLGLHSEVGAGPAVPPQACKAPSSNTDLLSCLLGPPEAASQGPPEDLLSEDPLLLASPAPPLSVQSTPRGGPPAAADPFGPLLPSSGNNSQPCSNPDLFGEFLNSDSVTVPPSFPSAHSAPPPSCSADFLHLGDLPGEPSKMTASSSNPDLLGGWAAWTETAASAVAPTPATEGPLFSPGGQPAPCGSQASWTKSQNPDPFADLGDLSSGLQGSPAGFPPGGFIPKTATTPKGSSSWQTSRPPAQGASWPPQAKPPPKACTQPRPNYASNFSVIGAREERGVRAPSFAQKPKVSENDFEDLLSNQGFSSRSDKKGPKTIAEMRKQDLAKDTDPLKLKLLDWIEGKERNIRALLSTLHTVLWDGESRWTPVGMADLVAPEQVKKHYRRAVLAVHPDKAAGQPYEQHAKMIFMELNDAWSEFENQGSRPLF

TNK1 = target: T3, TNK1 (Homo sapiens, UniProt Q13470); settings: 185-kinase panel; cited from earlier work
T3 sequence (Q13470 1-666): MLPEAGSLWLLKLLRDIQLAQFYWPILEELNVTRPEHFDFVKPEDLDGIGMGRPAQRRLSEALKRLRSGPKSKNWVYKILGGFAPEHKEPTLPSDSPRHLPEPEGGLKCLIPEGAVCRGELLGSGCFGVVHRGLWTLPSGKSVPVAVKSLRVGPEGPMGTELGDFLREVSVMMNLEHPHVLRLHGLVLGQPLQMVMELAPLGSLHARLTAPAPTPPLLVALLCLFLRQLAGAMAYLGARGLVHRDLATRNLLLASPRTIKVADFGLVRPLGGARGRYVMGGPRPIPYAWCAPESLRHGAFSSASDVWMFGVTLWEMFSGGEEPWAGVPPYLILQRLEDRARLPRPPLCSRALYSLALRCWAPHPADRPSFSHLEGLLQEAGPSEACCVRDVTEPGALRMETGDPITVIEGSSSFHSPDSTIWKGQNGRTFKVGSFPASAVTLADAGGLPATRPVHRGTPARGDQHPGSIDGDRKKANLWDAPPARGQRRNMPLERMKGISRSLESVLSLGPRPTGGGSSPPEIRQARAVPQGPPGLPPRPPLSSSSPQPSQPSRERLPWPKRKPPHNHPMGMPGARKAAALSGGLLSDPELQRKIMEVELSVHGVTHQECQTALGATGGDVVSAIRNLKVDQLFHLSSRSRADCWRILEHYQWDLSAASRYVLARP

CAMKK2 = CAMKK2 (Homo sapiens, UniProt Q96RR4); settings: 185-kinase panel; cited from earlier work
CAMKK2, sequence (Q96RR4 whole entry, species assumed): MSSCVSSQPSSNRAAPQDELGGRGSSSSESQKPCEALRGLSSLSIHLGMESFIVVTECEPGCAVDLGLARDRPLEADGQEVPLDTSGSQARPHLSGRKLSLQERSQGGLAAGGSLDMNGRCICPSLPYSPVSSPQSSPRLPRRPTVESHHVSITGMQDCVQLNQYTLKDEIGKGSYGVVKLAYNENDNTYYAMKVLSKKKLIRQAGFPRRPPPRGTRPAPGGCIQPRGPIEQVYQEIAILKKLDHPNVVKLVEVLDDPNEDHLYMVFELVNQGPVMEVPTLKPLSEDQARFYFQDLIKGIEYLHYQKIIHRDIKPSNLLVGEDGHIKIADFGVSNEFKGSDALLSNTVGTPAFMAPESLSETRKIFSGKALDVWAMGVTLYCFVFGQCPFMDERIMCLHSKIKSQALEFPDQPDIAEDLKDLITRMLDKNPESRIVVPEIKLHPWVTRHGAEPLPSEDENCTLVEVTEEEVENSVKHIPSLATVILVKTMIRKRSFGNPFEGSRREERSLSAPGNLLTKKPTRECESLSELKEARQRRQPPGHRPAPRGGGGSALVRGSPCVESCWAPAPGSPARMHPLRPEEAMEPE

PIP4K2C = target: T4, PIP4K2C (Homo sapiens, UniProt Q8TBX8); settings: 185-kinase panel; cited from earlier work
T4 sequence (Q8TBX8 1-421): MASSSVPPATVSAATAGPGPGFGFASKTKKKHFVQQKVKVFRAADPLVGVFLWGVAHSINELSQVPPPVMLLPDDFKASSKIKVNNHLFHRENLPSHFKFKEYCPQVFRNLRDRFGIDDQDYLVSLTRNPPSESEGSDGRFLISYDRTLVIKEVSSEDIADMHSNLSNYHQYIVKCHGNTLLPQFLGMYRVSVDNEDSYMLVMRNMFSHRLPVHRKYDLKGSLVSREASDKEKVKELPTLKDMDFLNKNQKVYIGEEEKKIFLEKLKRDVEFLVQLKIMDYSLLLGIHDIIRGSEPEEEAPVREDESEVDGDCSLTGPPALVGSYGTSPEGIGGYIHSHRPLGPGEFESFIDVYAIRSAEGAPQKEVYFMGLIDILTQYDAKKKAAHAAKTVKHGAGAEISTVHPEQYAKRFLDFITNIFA

[1] = in vivo; cited from earlier work

For `COc1cc(N2CCOCC2)ccc1Nc1ncc(F)c(Nc2ccccc2NS(C)(=O)=O)n1.Cl` [CZC-25146, N-(2-(5-Fluoro-2-(2-methoxy-4-morpholinophenylamino)pyrimidin-4-ylamino)phenyl)methanesulfonamide, HCl], the IC50 (PLK4) is listed as less than 300 nM, the IC50 (GAK) is listed as less than 300 nM and the IC50 (TNK1) is listed as less than 300 nM. For the same compound, the IC50 (CAMKK2) was less than 300 nM, the IC50 (PIP4K2C) was less than 300 nM and the oral bioavailability [1] was “orally bioavailable”.
